For data set [1], the system named is SMN2 minigene mRNA (SMN2-A minigene) in HEK293H cells. As to the kind of experiment: SMN2 minigene mRNA splicing RT-qPCR assay in cultured cells. Type of data set: cell-based, human. The following applies: Homo sapiens, HEK293-H; concentration increasing full length SMN2 mRNA 1.5-fold relative to vehicle-treated cells; HEK293H cells with SMN2-A minigene, 24 hours, 7-point concentration data; read-out: EC1.5x for production of full length SMN2 mRNA. In a few lines:
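Read-out: minigene-specific full-length (exon 7-included) SMN2 mRNA by one-step multiplex RT-qPCR, normalized to GAPDH and divided by vehicle-treated level. Stable SMN2-A minigene HEK293H cells, 24 h compound exposure, 7 concentrations in duplicate. EC1.5× = concentration raising FL mRNA 1.5-fold.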
Background: In qPCR the cycle at which signal appears reflects the starting amount.

In data set [2] the test system is Smn protein in SMA patient fibroblast cells (GM03813). As to the kind of experiment: Smn protein assay in cultured cells (SMN HTRF). Type of data set: cell-based, human. Conditions: SMA patient fibroblast cells, 48 hours; for maximum fold (Fold) increase of Smn protein: 7-point concentration data, fold relative to vehicle control; for EC1.5x for Smn protein expression: 7-point concentration curve, SMN HTRF, concentration producing 1.5 times Smn protein vs DMSO vehicle control. In short, it runs like this:
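Read-out: HTRF 665/620 nm ratio, blank-subtracted as ΔF, then expressed as fold over DMSO vehicle. Fibroblasts from SMA patients were exposed to compounds for 48 h (7 points, 3.16-fold steps, triplicates). Values are EC1.5× and maximum fold Smn increase.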

What is called melting point is the temperature of the solid-liquid transition.

Each structure is given as a SMILES string.

`COc1cc(F)cc(-c2cc(=O)n3cc(N4CCN[C@@H](C)C4)ccc3n2)c1` [Compound 140, 2-(3-fluoro-5-methoxyphenyl)-7-[(3S)-3-methylpiperazin-1-yl]-4H-pyrido[1,2-a]pyrimidin-4-one] showed a melting point of 154 to 156 °C. Also, the EC (1.5-fold increase) in data set [1] lay in the range of 1 to 3 µM. In addition, the “maximum fold (Fold) increase of Smn protein” value (shortened to “maximum fold (Fold) increase”) in data set [2] was “*** (a fold increase between >1.35 and ≤1.5 is indicated by three stars (***))”.

The molecule `Cc1cn2cc(-c3cc(=O)n4cc(N5CCC(C)(N)CC5)ccc4n3)cc2c(C)n1` [Compound 731, 7-(4-amino-4-methylpiperidin-1-yl)-2-(1,3-dimethylpyrrolo[1,2-a]pyrazin-7-yl)-4H-pyrido[1,2-a]pyrimidin-4-one] came in with a melting point of 244 to 246 °C. Also, the EC (1.5-fold increase) in data set [1] was under 0.1 µM. For the same molecule, in data set [2], the “EC1.5x for Smn protein expression” value was “**** (an EC1.5x≤0.3 μM is indicated by four stars (****))” and the “maximum fold (Fold) increase” value was “***** (a fold increase >1.65 is indicated by five stars (*****))”.

Take `Cc1cn2nc(-c3cc(=O)n4cc(N5C[C@@H](C)N[C@@H](C)C5)ccc4n3)cc2cn1` [Compound 442, 7-[(3R,5S)-3,5-dimethylpiperazin-1-yl]-2-(6-methylpyrazolo[1,5-a]pyrazin-2-yl)-4H-pyrido[1,2-a]pyrimidin-4-one]: the melting point is 258 to 260 °C. Further, the EC (1.5-fold increase) in data set [1] is under 0.1 µM. Besides, in data set [2], the “EC1.5x for Smn protein expression” value was “**** (an EC1.5x≤0.3 μM is indicated by four stars (****))” and the “maximum fold (Fold) increase” value is “***** (a fold increase >1.65 is indicated by five stars (*****))”.

Molecule `CCCN1CC=C(c2ccc3nc(-c4ccc(OC)c(OC)c4)cc(=O)n3c2)CC1` [Compound 365, 2-(3,4-dimethoxyphenyl)-7-(1-propyl-1,2,3,6-tetrahydropyridin-4-yl)-4H-pyrido[1,2-a]pyrimidin-4-one] gave a melting point of 158 to 160 °C. In data set [1], the EC (1.5-fold increase) was 0.1 to 0.3 µM. Besides, the “maximum fold (Fold) increase” value in data set [2] is “*** (a fold increase between >1.35 and ≤1.5 is indicated by three stars (***))”.

In turn, `COc1ccc(-c2cc(=O)n3cc(N4CCN[C@@H](C)C4)cc(C)c3n2)cc1OC` [Compound 142, 2-(3,4-dimethoxyphenyl)-9-methyl-7-[(3S)-3-methylpiperazin-1-yl]-4H-pyrido[1,2-a]pyrimidin-4-one] gave a melting point of 176 to 182 °C. Also, in data set [1], the EC (1.5-fold increase) lay within 0.3 to 1 µM. The “maximum fold (Fold) increase” value in data set [2] was “*** (a fold increase between >1.35 and ≤1.5 is indicated by three stars (***))”.

Turning to `Cc1nc2ccc(-c3cc(=O)n4cc(N5CCN(C)CC5)ccc4n3)cc2o1` [Cpd 171, 2-(2-methyl-1,3-benzoxazol-6-yl)-7-(4-methylpiperazin-1-yl)-4H-pyrido[1,2-a]pyrimidin-4-one], the melting point fell in the range of 178 to 183 °C. Moreover, the EC (1.5-fold increase) in data set [1] was under 0.1 µM. Also, in data set [2], the “EC1.5x for Smn protein expression” value is recorded as “**** (an EC1.5x≤0.3 μM is indicated by four stars (****))” and the “maximum fold (Fold) increase” value is given as “***** (a fold increase >1.65 is indicated by five stars (*****))”.

As for `Cc1nc2ccc(-c3cc(=O)n4cc(N5CC[C@@H](N(C)C)C5)ccc4n3)cc2o1` [Compound 264, 7-[(3R)-3-(dimethylamino)pyrrolidin-1-yl]-2-(2-methyl-1,3-benzoxazol-6-yl)-4H-pyrido[1,2-a]pyrimidin-4-one], the melting point fell in the range of 203 to 207 °C. Also, the EC (1.5-fold increase) in data set [1] is under 0.1 µM. In data set [2], the “EC1.5x for Smn protein expression” value was “**** (an EC1.5x≤0.3 μM is indicated by four stars (****))” and the “maximum fold (Fold) increase” value was “***** (a fold increase >1.65 is indicated by five stars (*****))”.

As for `CNC1CC=C(c2ccc3nc(-c4ccc(OC)c(OC)c4)cc(=O)n3c2)CC1` (stereo not drawn) [Compound 366, 2-(3,4-dimethoxyphenyl)-7-[4-(methylamino)cyclohex-1-en-1-yl]-4H-pyrido[1,2-a]pyrimidin-4-one], the melting point fell in the range of 232 to 235 °C. The EC (1.5-fold increase) in data set [1] was under 0.1 µM. Also, in data set [2], the “EC1.5x for Smn protein expression” value is on record as “**** (an EC1.5x≤0.3 μM is indicated by four stars (****))”; the “maximum fold (Fold) increase” value was “**** (a fold increase between >1.5 and ≤1.65 is indicated by four stars (****))”.

`Cc1cn2cc(-c3cc(=O)n4cc(N5C[C@@H](C)N[C@@H](C)C5)ccc4n3)cc2c(C)n1` [Compound 695, 7-[(3R,5S)-3,5-dimethylpiperazin-1-yl]-2-(1,3-dimethylpyrrolo[1,2-a]pyrazin-7-yl)-4H-pyrido[1,2-a]pyrimidin-4-one]: the melting point lay in the range of 254 to 256 °C. Further, the EC (1.5-fold increase) in data set [1] is under 0.1 µM. Besides, in data set [2], the “EC1.5x for Smn protein expression” value is “**** (an EC1.5x≤0.3 μM is indicated by four stars (****))” and the “maximum fold (Fold) increase” value is given as “***** (a fold increase >1.65 is indicated by five stars (*****))”.

The molecule `Cc1nc2cc(-c3cc(=O)n4cc(N5CCC(N(C)C)CC5)ccc4n3)ccc2s1` [Compound 347, 7-[4-(dimethylamino)piperidin-1-yl]-2-(2-methyl-1,3-benzothiazol-5-yl)-4H-pyrido[1,2-a]pyrimidin-4-one] showed a melting point of 218 to 220 °C. In addition, in data set [1], the EC (1.5-fold increase) was under 0.1 µM. Moreover, in data set [2], the “maximum fold (Fold) increase” value was “*** (a fold increase between >1.35 and ≤1.5 is indicated by three stars (***))”.

For `Cc1cn2cc(-c3cc(=O)n4cc(C5CCNCC5)ccc4n3)cc(Cl)c2n1` [Compound 516, 2-(8-chloro-2-methylimidazo[1,2-a]pyridin-6-yl)-7-(piperidin-4-yl)-4H-pyrido[1,2-a]pyrimidin-4-one], the melting point fell in the range of 287 to 293 °C. Further, the EC (1.5-fold increase) in data set [1] was under 0.1 µM. Further, in data set [2], the “EC1.5x for Smn protein expression” value is recorded as “**** (an EC1.5x≤0.3 μM is indicated by four stars (****))”; the “maximum fold (Fold) increase” value is “**** (a fold increase between >1.5 and ≤1.65 is indicated by four stars (****))”.

On to `CCc1nc(C)cn2nc(-c3cc(=O)n4cc(N5CCNCC5)ccc4n3)cc12` [Compound 546, 2-(4-ethyl-6-methylpyrazolo[1,5-a]pyrazin-2-yl)-7-(piperazin-1-yl)-4H-pyrido[1,2-a]pyrimidin-4-one], for which the melting point lay in the range of 230 to 233 °C. The EC (1.5-fold increase) in data set [1] is under 0.1 µM. For the same molecule, in data set [2], the “EC1.5x for Smn protein expression” value is “**** (an EC1.5x≤0.3 μM is indicated by four stars (****))” and the “maximum fold (Fold) increase” value is on record as “***** (a fold increase >1.65 is indicated by five stars (*****))”.

The molecule `Cc1cn2nc(-c3cc(=O)n4cc(N5CCC6NCCC6C5)ccc4n3)cc2c(C)n1` (stereo not drawn) [Compound 515, 2-(4,6-dimethylpyrazolo[1,5-a]pyrazin-2-yl)-7-(octahydro-5H-pyrrolo[3,2-c]pyridin-5-yl)-4H-pyrido[1,2-a]pyrimidin-4-one] gave a melting point of 198 to 200 °C. In data set [1], the EC (1.5-fold increase) is under 0.1 µM. For the same molecule, in data set [2], the “EC1.5x for Smn protein expression” value is recorded as “**** (an EC1.5x≤0.3 μM is indicated by four stars (****))” and the “maximum fold (Fold) increase” value is given as “***** (a fold increase >1.65 is indicated by five stars (*****))”.

Molecule `Cc1nc2ccc(-c3cc(=O)n4cc(N5CCNCC5)ccc4n3)cc2s1` [Compound 219, 2-(2-methyl-1,3-benzothiazol-6-yl)-7-(piperazin-1-yl)-4H-pyrido[1,2-a]pyrimidin-4-one] registered a melting point of 218 to 220 °C. The EC (1.5-fold increase) in data set [1] was under 0.1 µM. Also, in data set [2], the “EC1.5x for Smn protein expression” value is listed as “**** (an EC1.5x≤0.3 μM is indicated by four stars (****))”; the “maximum fold (Fold) increase” value is “**** (a fold increase between >1.5 and ≤1.65 is indicated by four stars (****))”.

The molecule `CCN1CCN(c2ccc3nc(-c4ccc(OC)c(OC)c4)cc(=O)n3c2)CC1` [Compound 9, 2-(3,4-dimethoxyphenyl)-7-(4-ethylpiperazin-1-yl)-4H-pyrido[1,2-a]pyrimidin-4-one] came in with a melting point of 159 to 162 °C. Also, the EC (1.5-fold increase) in data set [1] is 1 to 3 µM. Further, the “maximum fold (Fold) increase” value in data set [2] is “*** (a fold increase between >1.35 and ≤1.5 is indicated by three stars (***))”.

In the case of `CCc1nc(C)cn2nc(-c3cc(=O)n4cc(N5CCN(C6CCC6)CC5)ccc4n3)cc12` [Compound 621, 7-(4-cyclobutylpiperazin-1-yl)-2-(4-ethyl-6-methylpyrazolo[1,5-a]pyrazin-2-yl)-4H-pyrido[1,2-a]pyrimidin-4-one], the melting point fell in the range of 275 to 278 °C. Moreover, the EC (1.5-fold increase) in data set [1] fell in the range of 0.3 to 1 µM. Also, in data set [2], the “EC1.5x for Smn protein expression” value is recorded as “**** (an EC1.5x≤0.3 μM is indicated by four stars (****))” and the “maximum fold (Fold) increase” value is “***** (a fold increase >1.65 is indicated by five stars (*****))”.

The molecule `CCc1nc(C)cn2nc(-c3cc(=O)n4cc(C5CCN(CC)CC5)ncc4n3)cc12` [Compound 655, 2-(4-ethyl-6-methylpyrazolo[1,5-a]pyrazin-2-yl)-7-(1-ethylpiperidin-4-yl)-4H-pyrazino[1,2-a]pyrimidin-4-one] had a melting point of 273 to 275 °C. Besides, the EC (1.5-fold increase) in data set [1] is under 0.1 µM. Besides, in data set [2], the “EC1.5x for Smn protein expression” value is “**** (an EC1.5x≤0.3 μM is indicated by four stars (****))”; the “maximum fold (Fold) increase” value was “**** (a fold increase between >1.5 and ≤1.65 is indicated by four stars (****))”.

The record behind these values is patent US11753407B2, “Compounds for treating spinal muscular atrophy” (PTC Therapeutics, Inc., priority 2012, dated 2023).
